The IC50 is the concentration that gives 50% inhibition.

Data on 29 compounds can be found in US5859257A, “Isoxazole compounds as cyclooxygenase inhibitors” (G. D. Searle & Co., priority 1996, dated 1999).

One experiment has as its target COX-2. The experiment in a line: Evaluation of COX-2 activity in vitro (PGE2 ELISA, recombinant enzyme). In kind it is biochemical, human or murine. The conditions noted are these: arachidonic acid 10 μM, pH 8.0, pre-incubation 10-20 minutes. As for the experimental part:
The COX-2 inhibition activity of the compounds of this invention illustrated in the Examples was determined by the following methods.
(§1) a. Preparation of recombinant COX baculoviruses
(§2) Recombinant COX-1 and COX-2 were prepared as scribed by Gierse et al, [J. Biochem., 305, 479-84 (1995)]. […] Recombinant baculoviruses were isolated by transfecting 4 μg of baculovirus transfer vector DNA into SF9 insect cells (2×10^8) along with 200 ng of linearized baculovirus plasmid DNA by the calcium phosphate method. See M. D. Summers and G. E. Smith, A Manual of Methods for Baculovirus Vectors and Insect Cell Culture Procedures, Texas Agric. Exp. Station Bull. 1555 (1987). Recombinant viruses were purified by three rounds of plaque purification and high titer (10^7 -10^8 pfu/mL) stocks of virus were prepared. For large scale production, SF9 insect cells were infected in 10 liter fermentors (0.5×10^6 /mL) with the recombinant baculovirus stock such that the multiplicity of infection was 0.1. After 72 hours the cells were centrifuged and the cell pellet homogenized in Tris/Sucrose (50 mM: 25%, pH 8.0) containing 1% 3-[(3-cholamidopropyl)dimethylammonio]-1-propanesulfonate (CHAPS). The nomogenate was centrifuged at 10,000×G for 30 minutes, and the resultant supernatant was stored at -80° C. before being assayed for COX activity.
(§3) COX activity was assayed as PGE2 formed/μg protein/time using an ELISA to detect the prostaglandin released. CHAPS-solubilized insect cell membranes containing the appropriate COX enzyme were incubated in a potassium phosphate buffer (50 mM, pH 8.0) containing epinephrine, phenol, and heme with the addition of arachidonic acid (10 μM). […] Any reaction between the arachidonic acid and the enzyme was stopped after ten minutes at 37° C./room temperature by transferring 40 μl of reaction mix into 160 μl ELISA buffer and 25 μM indomethacin. The PGE2 formed was measured by standard ELISA technology (Cayman Chemical).

For the next experiment, the target named is COX-1. Nature of the experiment: Evaluation of COX-1 activity in vitro (PGE2 ELISA, recombinant enzyme). The following applies: arachidonic acid 10 μM, pH 8.0, pre-incubation 10-20 minutes. In kind it is biochemical, human or murine. The method, then: as §1, §2, §3

For `NS(=O)(=O)c1ccc(-c2c(-c3ccccc3)noc2CC(=O)C(F)(F)F)cc1` [Example 52, 4-[3-Phenyl-5-(3,3,3-trifluoro-2-oxopropyl)isoxazol-4-yl]benzenesulfonamide], the IC50 on COX-2 was found to be 0.2 µM; at COX-1, 93 µM.

Turning to `CC(C)Cc1onc(-c2ccccc2)c1-c1ccc(S(N)(=O)=O)cc1` [Example 1e, 4-[5-isobutyl-3-phenylisoxazol-4-yl]benzenesulfonamide], the values for the IC50 at COX-2 and at COX-1 were less than 0.1 µM and 37.7 µM, respectively.

Regarding `NS(=O)(=O)c1ccc(-c2c(-c3ccccc3)noc2C2CCCCC2)cc1` [Example 1f, 4-[5-cyclohexyl-3-phenylisoxazol-4-yl]benzenesulfonamide], at COX-1, the IC50 turned out to be 54 µM.

For `COc1ccc(-c2noc(C)c2-c2ccc(S(C)(=O)=O)cc2)cc1Cl` [Example 7, 3-(3-Chloro-4-methoxyphenyl)-5-methyl-4-[4-methylsulfonylphenyl]isoxazole], the IC50 at COX-2 is 86.7 µM; on COX-1, greater than 100 µM.

`CCCc1onc(-c2ccccc2)c1-c1ccc(S(N)(=O)=O)cc1` [Example 1b, 4-[5-propyl-3-phenylisoxazol-4-yl]benzenesulfonamide]: the IC50 on COX-2 was less than 0.1 µM; on COX-1 it was 13.2 µM.

For `Cc1noc(-c2ccc(S(C)(=O)=O)cc2)c1-c1ccccc1` [Example 22, 3-Methyl-5-(4-methylsulfonylphenyl)-4-phenylisoxazole], the IC50 at COX-2 was 5.3 µM; at COX-1 it was greater than 100 µM.

Regarding `C[S+]([O-])c1onc(-c2ccccc2)c1-c1ccc(S(N)(=O)=O)cc1` (stereo not drawn) [Example 59, 4-[5-Methylsulfinyl-3-phenylisoxazol-4-yl]benzenesulfonamide], the IC50 on COX-2 is less than 0.1 µM; at COX-1 it was greater than 100 µM.

`Cc1onc(-c2ccc(Cl)c(Cl)c2C(=O)O)c1-c1ccc(S(N)(=O)=O)cc1` [Example 68, 6-[4-[4-(aminosulfonyl)phenyl]-5-methylisoxazol-3-yl]-2,3-dichlorobenzoic acid]: the IC50 at COX-2 is 0.4 µM; on COX-1, greater than 100 µM.

On to `NS(=O)(=O)c1ccc(-c2c(-c3cccc(F)c3)noc2CC(=O)O)cc1` [Example 55, [4-(4-Aminosulfonylphenyl)-3-(3-fluorophenyl)isoxazol-5-yl]acetic acid], for which the IC50 was less than 0.1 µM at COX-2 and greater than 100 µM at COX-1.

As for `CC(C)(C)Cc1onc(-c2ccccc2)c1-c1ccc(S(N)(=O)=O)cc1` [Example 1g, 4-[5-neopentyl-3-phenylisoxazol-4-yl]benzenesulfonamide], the IC50 on COX-2 is less than 0.1 µM; on COX-1, greater than 100 µM.

As to `CCc1noc(-c2ccc(F)cc2)c1-c1ccc(S(N)(=O)=O)cc1` [Example 30, 4-[3-Ethyl-5-(4-fluorophenyl)isoxazol-4-yl]benzenesulfonamide], the IC50 was less than 0.1 µM on COX-2 and 41 µM at COX-1.

Turning to `CS(=O)(=O)c1ccc(-c2c(-c3ccccc3)noc2CO)cc1` [Example 61, 5-Hydroxymethyl-4-(4-methylsulfonyl)phenyl-3-phenyl-isoxazole], the IC50 on COX-2 is 0.2 µM; at COX-1 it was greater than 100 µM.

For the compound `Cc1onc(-c2cc(F)cc(F)c2)c1-c1ccc(S(N)(=O)=O)cc1` [Example 42, 4-[3-(3,5-Difluorophenyl)-5-methylisoxazol-4-yl]benzenesulfonamide], the IC50 on COX-2 was 22.5 µM; at COX-1, greater than 100 µM.

Take `Cc1onc(-c2cccc(Cl)c2)c1-c1ccc(S(N)(=O)=O)cc1` [Example 48, 4-[3-(3-Chlorophenyl)-5-methylisoxazol-4-yl]benzenesulfonamide]: the IC50 came out at 0.3 µM on COX-2 and 93 µM on COX-1.

Turning to `CCc1noc(-c2ccccc2C)c1-c1ccc(S(N)(=O)=O)cc1` [Example 54, 4-[3-Ethyl-5-(2-methylphenyl)isoxazol-4-yl]benzenesulfonamide], the IC50 at COX-2 was 1.8 µM; at COX-1, greater than 100 µM.

`Cc1ccc(-c2onc(C)c2-c2ccc(S(N)(=O)=O)cc2)cc1` [Example 19, 4-[3-Methyl-5-(4-methylphenyl)isoxazol-4-yl]benzenesulfonamide]: the IC50 at COX-2 was 8.7 µM; on COX-1, greater than 100 µM.

Regarding `COC(=O)c1ccc(OCc2onc(-c3ccccc3)c2-c2ccc(S(N)(=O)=O)cc2)cc1` [Example 50, Methyl 4-[[4-[4-(aminosulfonyl)phenyl]-3-phenylisoxazol-5-yl]methoxy]benzoate], the IC50 on COX-2 is less than 0.1 µM; at COX-1 it was greater than 100 µM.

For `Cc1onc(-c2ccc(F)cc2)c1-c1ccc(S(N)(=O)=O)cc1` [Example 4b, 4-[3-(4-fluorophenyl)-5-methyl-isoxazol-4-yl]benzenesulfonamide], the IC50 was less than 0.1 µM on COX-2 and greater than 100 µM at COX-1.

With `CC(C)c1onc(-c2ccccc2)c1-c1ccc(S(N)(=O)=O)cc1` [Example 1c, 4-[5-isopropyl-3-phenylisoxazol-4-yl]benzenesulfonamide], the IC50 was less than 0.1 µM on COX-2 and 6.2 µM on COX-1.

For the compound `COc1ccc(-c2noc(CC(=O)O)c2-c2ccc(S(C)(=O)=O)cc2)cc1F` [Example 6, [3-[3-Fluoro-4-methoxyphenyl]-4-[4-(methylsulfonyl)phenyl]isoxazol-5-yl]acetic acid], the IC50 at COX-2 is 35.7 µM; at COX-1 it was greater than 100 µM.

With `Cc1ccc(-c2noc(C)c2-c2ccc(S(N)(=O)=O)cc2)cc1F` [Example 4c, 4-[3-(3-fluoro-4-methylphenyl)-5-methyl-isoxazol-4-yl]benzenesulfonamide], the IC50 was less than 0.1 µM at COX-2 and 66.5 µM at COX-1.

Regarding `Cc1noc(-c2ccc(Cl)cc2)c1-c1ccc(S(N)(=O)=O)cc1` [Example 20, 4-[5-(4-chlorophenyl)-3-methylisoxazol-4-yl]benzenesulfonamide], the IC50 is 4.7 µM on COX-2 and greater than 100 µM on COX-1.

With `NS(=O)(=O)c1ccc(-c2c(-c3ccccc3)noc2CC2CCCCC2)cc1` [Example 1h, 4-[5-cyclohexylmethyl-3-phenylisoxazol-4-yl]benzenesulfonamide], the IC50 was less than 0.1 µM at COX-2 and 4.7 µM on COX-1.

Regarding `NS(=O)(=O)c1ccc(-c2c(-c3ccccc3)noc2C(=O)O)cc1` [Example 11, [4-[4-(Aminosulfonyl)phenyl]-3-phenylisoxazol-5-yl]carboxylic acid], the IC50 on COX-2 was found to be 35 µM.

`CCc1noc(-c2cccc(C)c2)c1-c1ccc(S(N)(=O)=O)cc1` [Example 32, 4-[3-Ethyl-5-(3-methylphenyl)isoxazol-4-yl]benzenesulfonamide]: on COX-1, the IC50 came out at 76 µM.

As for `CCc1noc(-c2ccccc2)c1-c1ccc(S(C)(=O)=O)cc1` [Example 29, 3-Ethyl-4-(4-methylsulfonylphenyl)-5-phenylisoxazole], the IC50 at COX-1 is greater than 100 µM.

Turning to `Cc1noc(-c2ccccc2)c1-c1ccc(S(N)(=O)=O)cc1` [Example 13, 4-[3-Methyl-5-phenylisoxazol-4-yl]benzenesulfonamide], the 50% inhibitory concentration (IC50) on COX-1 turned out to be 6.4 µM.

Regarding `Cc1onc(-c2ccc(F)c(F)c2)c1-c1ccc(S(N)(=O)=O)cc1` [Example 49, 4-[3-(3,4-Difluorophenyl)-5-methylisoxazol-4-yl]benzenesulfonamide], the IC50 on COX-1 was greater than 100 µM.

As for `NS(=O)(=O)c1ccc(-c2c(-c3ccccc3)noc2CC(=O)O)cc1` [Example 9, [4-[4-(Aminosulfonyl)phenyl]-3-phenylisoxazol-5-yl]acetic acid], the IC50 on COX-1 is greater than 100 µM.
